Results published in article PMC4507179, “Insights into the key interactions between human protein phosphatase 5 and cantharidin using molecular dynamics and site-directed mutagenesis bioassays” (Scientific Reports, 2015).
Positions count from the first letter of the chain named.

How the values were obtained:
PP5 = system: PP5; set-up: method as in PMID 17200551, PMID 19025735, PMID 20331621; details: read-out: relative IC50 value against PP5; cited from earlier work
[1] = target: T1, recombinant wild-type HuPP5 (Homo sapiens, UniProt P53041); assay: Inhibition of recombinant wild-type HuPP5 phosphatase activity (p-NPP substrate); format: biochemical; details: mean ± S.D., three independent experiments
T1 construct: 6xHis (N); made in house; host or cells: Escherichia coli BL21(DE3)pLysS, pET43.1b
T1 sequence (P53041 1-499): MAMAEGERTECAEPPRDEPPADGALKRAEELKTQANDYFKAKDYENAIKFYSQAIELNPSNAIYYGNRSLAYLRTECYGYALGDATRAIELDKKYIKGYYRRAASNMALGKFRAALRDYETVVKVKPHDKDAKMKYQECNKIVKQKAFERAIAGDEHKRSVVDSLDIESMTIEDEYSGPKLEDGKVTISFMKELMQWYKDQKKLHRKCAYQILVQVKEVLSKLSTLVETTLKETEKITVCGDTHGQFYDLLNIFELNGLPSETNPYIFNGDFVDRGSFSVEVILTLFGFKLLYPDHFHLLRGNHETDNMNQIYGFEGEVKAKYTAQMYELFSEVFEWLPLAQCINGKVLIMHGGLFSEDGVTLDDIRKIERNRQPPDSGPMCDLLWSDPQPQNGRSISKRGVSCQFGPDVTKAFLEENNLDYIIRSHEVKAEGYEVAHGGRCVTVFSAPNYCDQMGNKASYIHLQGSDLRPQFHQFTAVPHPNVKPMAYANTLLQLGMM
Description: The structures for the manganese-containing systems (Figure S2) were taken from the Research Collaboration for Structural Bioinformatics protein database (RCSB Protein Data Bank, PDB ID: 3H63; 3H61; 3H64)[22], and all the structures were visualized using pymol 1.3 r1 edu. Manganese-related force field parameters were determined using Seminario’s method. Atomic single charge was calculated using the restrained electrostatic potential (RESP) fitting protocol. The Quantum Mechanics (QM) and Molecular Mechanics (MM) vibrational frequencies were compared to check the quality of the force field parameters. We performed three individual 50 ns MD at different seeds for each system. All MD simulations were performed with the AMBER12 package. All MD results were analyzed with the Ambertools13 package based on three individual 50 ns MD trajectories, and the data were averaged. Molecular Mechanics-Poisson-Boltzmann Surface Area (MM-PBSA)[32] calculations were performed on 1000 snapshots exacted from 40 ~ 50 ns production trajectories with a time interval of 10 ps to estimate the binding free energy. Since only the catalytic domain was used in the simulations, the starting point in our constructed structure corresponds to the 176th residue in the reference structure. […] The IC50 values of the three compounds against all HuPP5 proteins were calculated from the dose-dependent inhibition assay. […]
Cells were harvested by centrifugation (8,000 g for 10 min at 4 ℃) and were lysed by sonication in buffer A (20 mM Tris-HCl, pH=8.0, 4 mM MnCl2, 300 mM NaCl) containing 20 mM imidazole, 0.1% β-mercaptoethanol, 1.0 mg/ml lysozyme and 1 mM PMSF. […] Protein concentrations were determined using a BCA Protein Assay Kit (Pierce, Thermo Scientific, Rockford, IL, USA).
Enzymatic assays and inhibition studies. Phosphatase activity was measured using p-NPP (p-nitrophenyl phosphate) as substrate. […]

HuPP5 R100A = target: T2, HuPP5 R100A (Homo sapiens, UniProt P53041, R275A); assay: Inhibition of recombinant HuPP5 mutant R100A (p-NPP substrate); format: biochemical; details: for IC50: recombinant HuPP5 R100A, p-NPP, mean ± S.D., three independent experiments; for ΔΔGbind-exp, R100A: ΔΔGbind = RTln(IC50 mutant/IC50 wild-type)
T2 construct: 6xHis (N); made in house; host or cells: Escherichia coli BL21(DE3)pLysS, pET43.1b
T2 sequence (P53041 1-499 R275A): T1 sequence (P53041 1-499) with R275A
Source text: (§1) A PCR-based site-directed mutagenesis approach was used to change Arg 100 to Ala (R100A), His 129 to Ala (H129A), and Arg 225 to Ala (R225A). All recombinant enzymes were soluble, expressed in E. coli and purified to homogeneity (>90% pure) (Figure S9). […] However, their inhibitory activity was suppressed against the three individually site-directed mutagenesis HuPP5: R100A, H129A, and R225A (Table S7). H129A appears to be most unfavorable to the binding of these inhibitors due to the highest IC50 values (>10 mM). […]
(§2) Site-directed mutagenesis. The sequence encoding the ORF of Human PP5 (HuPP5) was isolated from the liver cancer cell line SMMC-7721 by PCR using primers that introduced a Nde I site and 6xHis tag at the forward one, and a Xho I site at the reverse one. The PCR products were cloned into pCR2.1 (Invitrogen, Carlsbad, CA, USA) and transformed into DH5α (TaKaRa, Dalian, China) and then sequenced (AuGCT, Inc., Beijing, China). The mutants were generated using the QuikChange® site-directed mutagenesis kit (Stratagene, La Jolla, CA, USA) following the instruction manual. The mutagenic primers were designed based on the sequence of wild-type […]
(§3) The mutants were sequenced to confirm the presence of the desired mutations and the lack of undesired mutations.
(§4) Protein expression and purification. The wild-type and mutants HuPP5 were then cloned into the corresponding sites of pET43.1b (Novagen, Madison, WI, USA) and transformed into Escherichia coli BL21(DE3)pLysS (Novagen, Madison, WI, USA). Proteins were expressed in LB (also on this page, place not known: scan ning. T he Cβ -H Cβ -Cγ. energ y tantbinding mu wildtypeG G G −−ΔΔ =Δ −Δ tantbinding muG −Δ binding wildtypeG −Δ binding re spectively. bindingGΔΔ binding (Invitrogen , USA ) site -directed (Stratagene , USA ) wild -type S 5. purification . s ites (Novagen , USA )) […]
(§5) (Luria-Bertani) broth (containing 2 mM MnCl2, 100 μg/ml ampicillin and 34 μg/ml chloramphenicol) and induced with 0.1 mM IPTG (isopropyl β-thiogalactoside) for 24 h at 18 ℃.
(§6) Cells were harvested by centrifugation (8,000 g for 10 min at 4 ℃) and were lysed by sonication in buffer A (20 mM Tris-HCl, pH=8.0, 4 mM MnCl2, 300 mM NaCl) containing 20 mM imidazole, 0.1% β-mercaptoethanol, 1.0 mg/ml lysozyme and 1 mM PMSF. After centrifugation for 20 min at 20,000 g at 4 ℃, the supernatant was loaded to a buffer A pre-equilibrated Ni-NTA affinity column (Transgen, Beijing, China) to bind the 6xHis tagged protein. The reduction of non-specific interactions between the extract proteins and the matrix was achieved by washing the Ni-NTA resins with buffer B (20 mM Tris-HCl, pH=8.0, 300 mM NaCl, 1 mM EGTA, 0.1% β-mercaptoethanol, 4 mM MnCl2) containing 20 mM imidazole. Elution was then conducted using 150 mM imidazole in buffer B. The eluted HuPP5 fractions were pooled and dialyzed against buffer C (buffer B + 50% glycerol) overnight. Dialyzed samples were subjected to 12% SDS-PAGE and stained with Coomassie blue. Protein concentrations were determined using a BCA Protein Assay Kit (Pierce, Thermo Scientific, Rockford, IL, USA).
(§7) Enzymatic assays and inhibition studies. Phosphatase activity was measured using p-NPP (p-nitrophenyl phosphate) as substrate. Assays were performed in a 200 μL reaction containing 500 ng protein and assay buffer (20 mM p-NPP in 20 mM Tris (pH 7.4), 100 μM arachidonic acid, 1 mM EGTA, 0.1% β-mercaptoethanol and 0.1% ethanol). The reaction was initiated by adding the p-NPP and incubated at 35 ℃ for 10 min. Control reactions were assayed without enzyme.
(§8) Assays were terminated by addition of 200 μL of 5 N NaOH. Sample absorbance was measured at A410 using the TECANTM Infinite® 200 PRO multimode micro-plate reader after subtracting the appropriate background. Kinetic parameters were determined by using the Michaelis-Menten […]
(§9) plot analysis of data obtained under the assay conditions as mentioned above with the addition of […]

HuPP5 R225A = target: T3, HuPP5 R225A (Homo sapiens, UniProt P53041, R400A); assay: Inhibition of recombinant HuPP5 mutant R225A (p-NPP substrate); format: biochemical; details: for IC50: recombinant HuPP5 R225A, p-NPP, mean ± S.D., three independent experiments; for ΔΔGbind-exp, R225A: ΔΔGbind = RTln(IC50 mutant/IC50 wild-type)
T3 construct: 6xHis (N); made in house; host or cells: Escherichia coli BL21(DE3)pLysS, pET43.1b
T3 sequence (P53041 1-499 R400A): T1 sequence (P53041 1-499) with R400A
Source text: as §1, §2, §3, §4, §5, §6, §7, §8, §9

HuPP5 H129A = target: T4, HuPP5 H129A (Homo sapiens, UniProt P53041, H304A); assay: Inhibition of recombinant HuPP5 mutant H129A (p-NPP substrate); format: biochemical; details: for IC50: recombinant HuPP5 H129A, p-NPP; for ΔΔGbind-exp, H129A: ΔΔGbind = RTln(IC50 mutant/IC50 wild-type)
T4 construct: 6xHis (N); made in house; host or cells: Escherichia coli BL21(DE3)pLysS, pET43.1b
T4 sequence (P53041 1-499 H304A): T1 sequence (P53041 1-499) with H304A
Source text: as §1, §2, §3, §4, §5, §6, §7, §8, §9

Compound: C[C@@]12C(=O)OC(=O)[C@]1(C)[C@H]1CC[C@@H]2O1 [Cantharidin, cantharidin]
- IC50 (PP5): 0.6 µM
- IC50 [1]: 0.82 µM
- IC50 (HuPP5 R100A): 4.05 ± 0.34 µM
- ΔΔGbind-exp, R100A (HuPP5 R100A): 0.97 kcal/mol
- IC50 (HuPP5 R225A): 21.9 ± 1.12 µM
- ΔΔGbind-exp, R225A (HuPP5 R225A): 2.03 kcal/mol
- IC50 (HuPP5 H129A): > 10000 µM
- ΔΔGbind-exp, H129A (HuPP5 H129A): >5.74 kcal/mol

Compound: O=C(O)[C@@H]1[C@H](C(=O)O)[C@H]2CC[C@@H]1O2 [Endothall, endothall]
- IC50 [1]: 3.64 µM
- IC50 (HuPP5 R100A): 18.4 ± 0.39 µM
- ΔΔGbind-exp, R100A (HuPP5 R100A): 0.99 kcal/mol
- IC50 on R225A higher than that of cantharidin (HuPP5 R225A; ratio of IC50 values on HuPP5 R225A, versus cantharidin): 48.54 fold
- IC50 on R225A higher than that of norcantharidin (HuPP5 R225A; ratio of IC50 values on HuPP5 R225A, versus norcantharidin): 6.47 fold
- IC50 (HuPP5 R225A): 1060 ± 63.7 µM
- ΔΔGbind-exp, R225A (HuPP5 R225A): 3.46 kcal/mol
- IC50 (HuPP5 H129A): > 10000 µM
- ΔΔGbind-exp, H129A (HuPP5 H129A): >4.83 kcal/mol

Compound: O=C1OC(=O)[C@H]2[C@@H]1[C@@H]1CC[C@H]2O1 [Norcantharidin, norcantharidin]
- IC50 [1]: 4.18 µM
- IC50 (HuPP5 R100A): 17.8 ± 1.44 µM
- ΔΔGbind-exp, R100A (HuPP5 R100A): 0.88 kcal/mol
- IC50 (HuPP5 R225A): 164 ± 9.84 µM
- ΔΔGbind-exp, R225A (HuPP5 R225A): 2.24 kcal/mol
- IC50 (HuPP5 H129A): > 10000 µM
- ΔΔGbind-exp, H129A (HuPP5 H129A): >4.75 kcal/mol
